# Reference: US20260138961A1, “MODULATORS OF MITOCHONDRIAL DNA REPLICATION” (Pretzel Therapeutics, Inc., priority 2022, published 2026)
# Target: T1, wild type human POLγ (POLγA:WT) (Homo sapiens, UniProt P54098)
# T1 sequence (P54098 1-1239): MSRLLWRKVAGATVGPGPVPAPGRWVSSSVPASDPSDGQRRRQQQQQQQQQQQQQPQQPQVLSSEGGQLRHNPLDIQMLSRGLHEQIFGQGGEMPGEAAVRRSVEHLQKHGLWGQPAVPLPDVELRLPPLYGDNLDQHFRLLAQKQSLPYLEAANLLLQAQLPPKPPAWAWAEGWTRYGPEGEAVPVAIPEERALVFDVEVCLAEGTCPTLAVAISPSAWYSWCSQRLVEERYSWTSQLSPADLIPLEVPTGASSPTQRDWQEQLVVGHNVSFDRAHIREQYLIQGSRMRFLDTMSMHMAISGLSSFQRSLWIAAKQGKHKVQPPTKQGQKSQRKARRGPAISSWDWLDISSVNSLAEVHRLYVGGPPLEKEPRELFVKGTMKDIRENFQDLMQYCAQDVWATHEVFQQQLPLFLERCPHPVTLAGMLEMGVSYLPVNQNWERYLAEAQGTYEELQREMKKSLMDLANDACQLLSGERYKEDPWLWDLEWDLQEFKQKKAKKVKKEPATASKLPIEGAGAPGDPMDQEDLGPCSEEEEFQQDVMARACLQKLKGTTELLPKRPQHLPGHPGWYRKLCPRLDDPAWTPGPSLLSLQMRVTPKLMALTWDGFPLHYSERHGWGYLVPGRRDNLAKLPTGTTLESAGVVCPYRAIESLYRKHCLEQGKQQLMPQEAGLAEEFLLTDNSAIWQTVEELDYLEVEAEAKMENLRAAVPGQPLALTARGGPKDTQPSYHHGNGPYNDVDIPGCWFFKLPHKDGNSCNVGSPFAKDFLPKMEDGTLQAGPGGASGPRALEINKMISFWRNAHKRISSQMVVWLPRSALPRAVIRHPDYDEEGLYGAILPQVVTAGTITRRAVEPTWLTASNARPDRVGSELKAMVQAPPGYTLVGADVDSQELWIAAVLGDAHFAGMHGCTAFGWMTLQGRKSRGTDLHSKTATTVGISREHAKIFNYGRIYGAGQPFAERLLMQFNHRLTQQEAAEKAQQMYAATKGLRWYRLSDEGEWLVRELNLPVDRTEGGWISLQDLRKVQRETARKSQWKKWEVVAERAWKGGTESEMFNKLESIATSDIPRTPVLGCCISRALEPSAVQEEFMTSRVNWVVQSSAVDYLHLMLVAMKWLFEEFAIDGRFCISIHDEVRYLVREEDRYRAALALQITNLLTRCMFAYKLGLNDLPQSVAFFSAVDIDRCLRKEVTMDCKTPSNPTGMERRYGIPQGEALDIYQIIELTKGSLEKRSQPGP
# T1 sequence (Q9UHN1 1-485 partner): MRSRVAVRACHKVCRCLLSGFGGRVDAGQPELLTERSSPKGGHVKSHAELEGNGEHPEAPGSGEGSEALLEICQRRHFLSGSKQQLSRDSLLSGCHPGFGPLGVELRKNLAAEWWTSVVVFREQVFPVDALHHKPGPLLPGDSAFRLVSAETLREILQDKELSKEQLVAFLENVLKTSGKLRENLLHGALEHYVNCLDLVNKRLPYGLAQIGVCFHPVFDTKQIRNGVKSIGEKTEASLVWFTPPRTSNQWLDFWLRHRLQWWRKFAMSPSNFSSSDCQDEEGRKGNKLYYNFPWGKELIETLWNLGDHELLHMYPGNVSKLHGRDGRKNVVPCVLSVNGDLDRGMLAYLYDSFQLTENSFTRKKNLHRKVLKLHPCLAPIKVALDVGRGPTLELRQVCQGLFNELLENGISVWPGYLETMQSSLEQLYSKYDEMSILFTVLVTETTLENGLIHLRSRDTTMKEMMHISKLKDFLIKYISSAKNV
# Test: DNA polymerization assay, wild type POLγ
# Format: biochemical
# Conditions: 0.1 μM dNTP, read-out: WT AC50 (μM) at 0.1 μM
row,AC50,SMILES
1,3 µM,"COCCN(C)C(=O)c1cccc(NS(=O)(=O)c2cc(C)c(Cl)cc2C)c1 [Example 58, 3-((4-chloro-2,5-dimethylphenyl)sulfonamido)-N-(2-methoxyethyl)-N-methylbenzamide]"
2,6 µM,"Cc1cc(S(=O)(=O)Nc2cccc(C(=O)N[C@H](C)CO)c2)c(C)cc1Cl [Example 51, (R)-3-((4-chloro-2,5-dimethylphenyl)sulfonamido)-N-(1-hydroxypropan-2-yl)benzamide]"
3,12 µM,"Cc1ccc(C)c(S(=O)(=O)Nc2cccc(C(=O)N3CCCCCC3)c2)c1 [Example 32, N-(3-(azepane-1-carbonyl)phenyl)-2,5-dimethylbenzenesulfonamide]"
4,2 µM,"Cc1ccc(C)c(S(=O)(=O)Nc2cccc(C(=O)N3CCOCC3)c2)c1 [Example 29, 2,5-dimethyl-N-(3-(morpholine-4-carbonyl)phenyl)benzenesulfonamide]"

# Same assay, conditions: 1 μM dNTP, read-out: WT AC50 (μM) at 1 μM
row,AC50,SMILES
1,0.4 µM,"COc1ccccc1-c1nc(NS(=O)(=O)c2cc(C)c(Cl)cc2C)cs1 [Example 155, 4-chloro-N-(2-(2-methoxyphenyl)thiazol-4-yl)-2,5-dimethylbenzenesulfonamide]"

# Same assay, conditions: 100 μM dNTP, read-out: WT AC50 (μM) at 100 μM
row,SMILES,AC50
1,"CC[C@@H]1CCCN1C(=O)c1cccc(NS(=O)(=O)c2cc(C)c(Cl)cc2C)c1 [Example 65, (R)-4-chloro-N-(3-(2-ethylpyrrolidine-1-carbonyl)phenyl)-2,5-dimethylbenzenesulfonamide]",8 µM
2,"Cc1cc(S(=O)(=O)Nc2ccc3ccn(C(C)C)c3c2)c(C)cc1Cl [Example 69, 4-chloro-N-(1-isopropyl-1H-indol-6-yl)-2,5-dimethylbenzenesulfonamide]",1 µM
3,"Cc1cc(S(=O)(=O)Nc2csc(C(=O)N3CCCC3)n2)c(C)cc1Cl [Example 166, 4-chloro-2,5-dimethyl-N-(2-(pyrrolidine-1-carbonyl)thiazol-4-yl)benzenesulfonamide]",2 µM
4,"Cc1cnc(-c2cccc(NS(=O)(=O)c3cc(C)c(Cl)cc3C)c2)s1 [Example 21, 4-chloro-2,5-dimethyl-N-(3-(5-methylthiazol-2-yl)phenyl)benzenesulfonamide]",1 µM
5,"COc1cccc(-c2nc(NS(=O)(=O)c3cc(C)c(Cl)cc3C)cs2)c1 [Example 165, 4-chloro-N-(2-(3-methoxyphenyl)thiazol-4-yl)-2,5-dimethylbenzenesulfonamide]",0.7 µM

# The next lines start with the values.
row,AC50,SMILES
1,5 µM,"Cc1cc(S(=O)(=O)Nc2cnn(-c3ccccc3)n2)c(C)cc1Cl [Example 171, 4-chloro-2,5-dimethyl-N-(2-phenyl-2H-1,2,3-triazol-4-yl)benzenesulfonamide]"
2,3 µM,"Cc1cc(S(=O)(=O)Nc2csc(C(=O)N3CCC[C@@H]3C)n2)c(C)cc1Cl [Example 175, (S)-4-chloro-2,5-dimethyl-N-(2-(2-methylpyrrolidine-1-carbonyl)thiazol-4-yl)benzenesulfonamide]"
3,> 10 µM,"Cc1cc(S(=O)(=O)Nc2cn(C)c(-c3ccccc3)n2)c(C)cc1Cl [Example 170, 4-chloro-2,5-dimethyl-N-(1-methyl-2-phenyl-1H-imidazol-4-yl)benzenesulfonamide]"
4,> 100 µM,"Cc1cc(S(=O)(=O)Nc2csc(C(=O)N(C)CC(N)=O)n2)c(C)cc1Cl [Example 172, N-(2-amino-2-oxoethyl)-4-((4-chloro-2,5-dimethylphenyl)sulfonamido)-N-methylthiazole-2-carboxamide]"
5,> 10 µM,"Cc1cc(S(=O)(=O)Nc2csc(-c3ccn(C)n3)n2)c(C)cc1Cl [Example 181, 4-chloro-2,5-dimethyl-N-(2-(1-methyl-1H-pyrazol-3-yl)thiazol-4-yl)benzenesulfonamide]"
6,0.2 µM,"Cc1cc(S(=O)(=O)Nc2csc(-c3ccccn3)n2)c(C)cc1Cl [Example 173, 4-chloro-2,5-dimethyl-N-(2-(pyridin-2-yl)thiazol-4-yl)benzenesulfonamide]"
